Laboratory results from US9827228B2, “Opioid receptor modulators and use thereof” (priority 2015, dated 2017).
Read-outs that look alike come from different tables or passages of the source.

How the values were obtained:
B6 mice = experiment: Tail-flick test; type: in vivo; conditions: for AUC of inhibition of the tail-flick response: 0-180 min
Protocol: Male wild-type B6 mice (25-30 g) were kept in a temperature-controlled animal room with a 12-h light/dark cycle. The protocol was approved by the Institutional Animal Care and Use Committee of the National Health Research Institutes, Taiwan. Animal experiments were carried out in accordance with the Policies on the Use of Animals in Neuroscience Research and the ethical guidelines for investigations of experimental pain in conscious animals, International Association for the Study of Pain.
Tail-Flick Analgesia Meter (Columbia Instruments, Trussville, Ala., USA) was used to measure the tail-flick latencies of mice. The cut-off time for each measurement was 10 s to avoid tissue damage. Basal latencies (in seconds) were recorded before treatment and test latencies (also in seconds) were recorded at 30, 60, 90, 120, and 180 minutes after an intravenous injection of compounds. Time-response curves from compounds at various concentrations were obtained for anti-nociceptive effects occurring between 0 and 180 minutes. The AUC values corresponding to the various concentrations were also calculated. The anti-nociceptive effects were quantitatively calculated by substracting the basal latency from the test latency. An ED50 value was determined by an up-and-down method reported in Crocker et al., Pharmacol Biochem Behav, 1984, 21, 133-136.
To investigate whether AAMs could change the innate character of MOR to be activated by naloxone in vivo, tail-flick tests after acute treatment were performed. […] Unexpectedly, in mice injected only with the vehicle not containing naloxone, no anti-nociception effect was observed even with the highest dose of Compound 1 at 100 mg/kg. These in vivo results again indicate that Compound 1 served as an AAM of the MOR.

hMOR = target: T1, hMOR (Homo sapiens, UniProt P35372); experiment: cell-based; type: cell-based; conditions: for AUC: AUC of [Ca2+]i fluorescence
T1 construct: host or cells: CHO-K1
Protocol: Chinese hamster ovary (CHO)-K1 cells expressing hMOR and Gα15 (CHO-K1/MOR/Gα15) were cultured in F12 medium (GIBCO) supplemented with 10 μg/mL Hygromycin B (Invivogen), 20 μg/mL Zeocin (Invivogen) and P/S/F (100 units/mL penicillin, 100 μg/mL streptomycin, 10% fetal bovine serum). The cultures were incubated at 37° C. in a humidified 5% CO2 incubator.
One day prior to running the assay, CORNING® black 96-well assay plates having a clear flat bottom were coated with a 0.1 mg/mL Poly-L-Lysine solution. CHO-K1/MOR/Gα15 cells were suspended in F12 medium and plated at a density of about 8×10^4 cells/well in 200 μL medium. Cells were incubated under a humidified atmosphere of 10% CO2 at 37° C. overnight to reach an 80-90% confluent cell monolayer before the assay. On the day of the assay, 150 μL medium was removed from each well of the plates. To each well were added FLIPR® calcium assay reagents (Molecular Devices Corporation, Sunnyvale, Calif., USA; 50 μL) dissolved in 1× assay buffer (HBSS: KCl 5 mM, KH2PO4 0.3 mM, NaCl 138 mM, NaHCO3 4 mM, Na2HPO4 0.3 mM, d-glucose 5.6 mM, with additional 20 mM HEPES and […], pH 7.4) and 2.5 mM probenecid. After incubation at 37° C. for 1 hour, a test compound, alone or together with naloxone (a MOR antagonist), was also added to each well. Using a FlexStationlll instrument (Molecular Devices Corp.), increments of the [Ca^2+]i fluorescence after robotic injection of the cell suspension were monitored at 1.52 s intervals using the excitation wavelength of 485 nm and the emission wavelength of 525 nm. The [Ca^2+]i fluorescence was measured up to 90 s after the injection. The fluorescence intensity from 6 to 12 wells of cells were averaged and the relative amount of [Ca^2+]i release was determined by integrating the AUC of the [Ca^2+]i fluorescence averages.
A CHO-K1 cell line expressing MOR and Gα15 (GenScript) was used to set up a sensitive high-throughput screen (HTS) system. […] The HTS was performed in the absence or presence of naloxone (an opioid antagonist; 20 nM), to identify AAMs.

[1] = combined with naloxone, CHO-K1/MOR/Gα15 cells
[2] = combined with naloxone, CHO-K1/MOR/Gα15 cells, read-out: EC50

T1 sequence (P35372 whole entry): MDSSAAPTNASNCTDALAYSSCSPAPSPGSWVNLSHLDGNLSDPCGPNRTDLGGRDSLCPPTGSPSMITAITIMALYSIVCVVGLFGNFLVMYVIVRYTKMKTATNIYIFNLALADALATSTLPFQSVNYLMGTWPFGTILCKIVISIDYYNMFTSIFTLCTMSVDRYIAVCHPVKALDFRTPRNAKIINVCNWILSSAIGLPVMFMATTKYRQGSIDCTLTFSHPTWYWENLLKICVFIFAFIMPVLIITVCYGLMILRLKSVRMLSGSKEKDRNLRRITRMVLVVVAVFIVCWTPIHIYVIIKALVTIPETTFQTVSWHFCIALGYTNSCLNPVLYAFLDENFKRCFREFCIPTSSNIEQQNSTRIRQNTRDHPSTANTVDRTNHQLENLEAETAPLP

| Compound | AUC (hMOR; [1]) | EC50 (hMOR; [2]) | further results |
| --- | --- | --- | --- |
| CCc1ccccc1Nc1nc(-c2sc(C)nc2C)cs1 [Compound 1, N-(2-Ethylphenyl)-2′,4′-dimethyl-4,5′-bi-1,3-thiazol-2-amine] | + (+: >5000) |  | anti-nociceptive effect (B6 mice; Compound 1 alone at 25, 50, or 100 mg/kg (i.v.), B6 mice): did not produce any anti-nociceptive effect; AUC of inhibition of the tail-flick response (B6 mice; Compound 1 at 25 mg/kg (i.v.) with naloxone at 10 mg/kg): 114.8±26 min×s; AUC of inhibition of the tail-flick response (B6 mice; Compound 1 at 50 mg/kg (i.v.) with naloxone at 10 mg/kg): 159.8±60 min×s; AUC of inhibition of the tail-flick response (B6 mice; Compound 1 at 100 mg/kg (i.v.) with naloxone at 10 mg/kg): 384±87 min×s; EC50 (hMOR; EC50, combined with naloxone): < 10 µM; EC50 (hMOR; EC50, combined with naloxone (20 nM)): 4 µM; EC50 (hMOR; EC50, combined with naloxone, CHO-K1/MOR/Gα15 cells): 3 to 10 µM; effect on Emax and potency of naloxone (hMOR; concentration-response curves of naloxone at several concentrations of Compound 1): both Emax and potency of naloxone were altered; calcium release (hMOR; in the presence of naloxone): significant calcium release; PAM or NAM effect: Emax and potency of morphine (hMOR; morphine with Compound 1 at 30, 10, or 3.3 μM): neither Emax nor potency of morphine was significantly altered |
| CCOC(=O)c1cc(-c2csc(Nc3ccccc3CC)n2)on1 [Compound 128, Ethyl 5-{2-[(2-ethylphenyl)amino]-1,3-thiazol-4-yl}-1,2-oxazole-3-carboxylate] | − (−: <5000) | > 10 µM |  |
| CCc1ccccc1Nc1nc(-c2cc(-c3ccccc3)no2)cs1 [Compound 129, N-(2-Ethylphenyl)-4-(3-phenyl-1,2-oxazol-5-yl)-1,3-thiazol-2-amine] | − (−: <5000) | > 10 µM |  |
| Cc1nc(C)c(-c2csc(N)n2)s1 [Compound 130, 2′,4′-Dimethyl-4,5′-bi-1,3-thiazol-2-amine] | − (−: <5000) | > 10 µM |  |
| CCc1ccccc1Nc1nccs1 [Compound 131, N-(2-Ethylphenyl)-1,3-thiazol-2-amine] | − (−: <5000) | > 10 µM |  |
| CCc1ccccc1Nc1nc(C)cs1 [Compound 132, N-(2-Ethylphenyl)-4-methyl-1,3-thiazol-2-amine] | − (−: <5000) | > 10 µM |  |
| C=CCN1CC[C@]23c4c5ccc(O)c4O[C@H]2C(=O)CC[C@@]3(O)[C@H]1C5 [naloxone, reference compound] |  |  | ED50 (B6 mice; Mus musculus, mice injected with Compound 1 at 100 mg/kg, read-out: ED50 in inhibiting the tail-flick response): 17.5 ± 4 mg/kg |
